Experimental data from patent publication US12098148B2, “Therapeutic compounds” (C4X Discovery Limited, priority 2018, dated 2024).
Where two headings read alike, the source gives them in different places.

Assays:
[1] = test system: NQO1 mRNA in BEAS-2B cells; assay: Beas2B NQO1 mRNA cell based assay; design: species or system human; details: 24 h compound treatment, increase in NQO1 mRNA vs vehicle (0.1% DMSO), read-out: EC50
Method in brief: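 BEAS-2B human bronchial epithelial cells exposed to compound for 24 h at 37 °C, 5% CO2. NQO1 mRNA measured by one-step TaqMan RT-qPCR on unpurified lysates, normalized to β-actin; relative expression by ΔΔCT method.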

[2] = target: T1, human KEAP1 (N-term, residues 321-609) (Homo sapiens, UniProt Q14145); assay: biochemical;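 note: fluorescence polarization competition assay of Kelch domain binding to NRF2, 12-point 1:3 dilution series from 10 µM, read after 1 h at room temperature, floor 10 nM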
[3] = target: T1, human KEAP1 (N-term, residues 321-609)

T1 sequence (Q14145 321-609): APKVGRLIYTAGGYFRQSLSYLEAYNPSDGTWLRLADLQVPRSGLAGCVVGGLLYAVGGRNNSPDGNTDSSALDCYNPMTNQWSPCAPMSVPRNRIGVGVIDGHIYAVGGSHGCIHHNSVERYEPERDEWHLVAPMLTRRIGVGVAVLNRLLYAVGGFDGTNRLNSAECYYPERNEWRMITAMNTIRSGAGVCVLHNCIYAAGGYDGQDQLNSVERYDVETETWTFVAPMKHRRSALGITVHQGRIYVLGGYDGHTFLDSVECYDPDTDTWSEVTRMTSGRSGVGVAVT

Row | IC50 [2] | IC50 [3] | Molecule | EC50 ([1]; Homo sapiens, BEAS-2B, 24 h) | EC50 [1]
1 | 9.8 nM | – | Cn1nnc(COc2ccc(Cl)c3c2[C@@H](CN2CC4(CC4)CC2=O)N(C(=O)[C@@H]2CC(F)(F)CC[C@]2(C)C(=O)O)CC3)c1C(F)F [Example 217, (1S,2R)-2-((S)-5-chloro-8-((5-(difluoromethyl)-1-methyl-1H-1,2,3-triazol-4-yl)methoxy)-1-((6-oxo-5-azaspiro[2.4]heptan-5-yl)methyl)-1,2,3,4-tetrahydroisoquinoline-2-carbonyl)-4,4-difluoro-1-methylcyclohexane-1-carboxylic acid] | 43 nM | –
2 | 6.8 nM | – | Cn1nnc(COc2ccc(Cl)c3c2[C@@H](CN2CC4(CC4)CC2=O)N(C(=O)[C@@H]2C[C@@H](F)CC[C@]2(C)C(=O)O)CC3)c1C(F)F [Example 218, (1S,2R,4S)-2-((S)-5-chloro-8-((5-(difluoromethyl)-1-methyl-1H-1,2,3-triazol-4-yl)methoxy)-1-((6-oxo-5-azaspiro[2.4]heptan-5-yl)methyl)-1,2,3,4-tetrahydroisoquinoline-2-carbonyl)-4-fluoro-1-methylcyclohexane-1-carboxylic acid] | 0.98 nM | –
3 | 5.3 nM | – | [2H][C@@H]1CC[C@](C)(C(=O)O)[C@H](C(=O)N2CCc3c(Cl)ccc(OCc4nnn(C)c4C(F)F)c3[C@H]2CN2CC3(CC3)CC2=O)C1 [Example 219, (1S,2R,4R)-2-((S)-5-chloro-8-((5-(difluoromethyl)-1-methyl-1H-1,2,3-triazol-4-yl)methoxy)-1-((6-oxo-5-azaspiro[2.4]heptan-5-yl)methyl)-1,2,3,4-tetrahydroisoquinoline-2-carbonyl)-1-methylcyclohexane-1-carboxylic-4-d acid] | 0.18 nM | –
4 | 7 nM | – | Cn1nnc(COc2ccc(Cl)c3c2[C@@H](CN2CC4(CC4)CC2=O)N(C(=O)[C@@H]2C[C@@H](O)CC[C@]2(C)C(=O)O)CC3)c1C(F)F [Example 220, (1S,2R,4S)-2-((S)-5-chloro-8-((5-(difluoromethyl)-1-methyl-1H-1,2,3-triazol-4-yl)methoxy)-1-((6-oxo-5-azaspiro[2.4]heptan-5-yl)methyl)-1,2,3,4-tetrahydroisoquinoline-2-carbonyl)-4-hydroxy-1-methylcyclohexane-1-carboxylic acid] | 15 nM | –
5 | 5 nM | – | Cn1nnc(COc2ccc(Cl)c3c2[C@@H](CN2CC4(CC4)CC2=O)N(C(=O)[C@@H]2CC[C@H](O)C[C@]2(C)C(=O)O)CC3)c1C(F)F [Example 223, (1S,2R,5S)-2-((S)-5-chloro-8-((5-(difluoromethyl)-1-methyl-1H-1,2,3-triazol-4-yl)methoxy)-1-((6-oxo-5-azaspiro[2.4]heptan-5-yl)methyl)-1,2,3,4-tetrahydroisoquinoline-2-carbonyl)-5-hydroxy-1-methylcyclohexane-1-carboxylic acid] | 15 nM | –
6 | 5.8 nM | – | Cn1nnc(COc2ccc(Cl)c3c2[C@@H](CN2CC4(CC4)CC2=O)N(C(=O)[C@@H]2CC[C@@H](O)C[C@]2(C)C(=O)O)CC3)c1C(F)F [Example 224, (1S,2R,5R)-2-((S)-5-chloro-8-((5-(difluoromethyl)-1-methyl-1H-1,2,3-triazol-4-yl)methoxy)-1-((6-oxo-5-azaspiro[2.4]heptan-5-yl)methyl)-1,2,3,4-tetrahydroisoquinoline-2-carbonyl)-5-hydroxy-1-methylcyclohexane-1-carboxylic acid] | 42 nM | –
7 | 6.5 nM | – | Cn1nnc(COc2ccc(Cl)c3c2[C@@H](CN2CC4(CC4)CC2=O)N(C(=O)[C@@H]2C[C@H](O)CC[C@]2(C)C(=O)O)CC3)c1C(F)F [Example 225, (1S,2R,4R)-2-((S)-5-chloro-8-((5-(difluoromethyl)-1-methyl-1H-1,2,3-triazol-4-yl)methoxy)-1-((6-oxo-5-azaspiro[2.4]heptan-5-yl)methyl)-1,2,3,4-tetrahydroisoquinoline-2-carbonyl)-4-hydroxy-1-methylcyclohexane-1-carboxylic acid] | 110 nM | –
8 | 5 nM | – | Cn1nnc(COc2ccc(Cl)c3c2[C@@H](CN2CC4(CC4)CC2=O)N(C(=O)[C@@H]2CCCO[C@@H]2C(=O)O)CC3)c1C(F)F [Example 226, (2S,3R)-3-((S)-5-chloro-8-((5-(difluoromethyl)-1-methyl-1H-1,2,3-triazol-4-yl)methoxy)-1-((6-oxo-5-azaspiro[2.4]heptan-5-yl)methyl)-1,2,3,4-tetrahydroisoquinoline-2-carbonyl)tetrahydro-2H-pyran-2-carboxylic acid] | 14 nM | –
9 | – | 5.7 nM | (1S,2R)-2-((S)-8- ((2,5-bis (difluoromethyl)-2H- 1,2,3-triazol-4-yl) methoxy)-5-chloro-1 ((2-oxopyrrolidin-1- yl)methyl)-1,2,3,4- tetrahydroisoquinoline- 2-carbonyl)-1- methylcyclohexane-1- carboxylic acid [Example 139] | – | 140 nM
10 | – | 7.7 nM | (1S,2R)-2-((S)- 8-((1,5-bis (difluoromethyl)- 1H-1,2,3-triazol-4-yl) methoxy)-5-chloro-1- ((2-oxopyrrolidin-1- yl)methyl)-1,2,3,4- tetrahydroisoquinoline- 2-carbonyl)-1- methylcyclohexane- 1-carboxylic acid [Example 193] | – | 1.8 nM
